Measured values from ChEMBL document CHEMBL4138170, “Synthesis and biological evaluation of novel alkylated polyamine analogues as potential anticancer agents” (Eur J Med Chem, 2018).

Columns and labels:
[1] = system: HepG2; test: Antiproliferative activity against human HepG2 cells after 48 hrs by MTT assay; type: functional, cell-based; conditions: HepG2, 48 h
[2] = system: HCT-116; test: Antiproliferative activity against human HCT116 cells after 48 hrs by MTT assay; type: functional, cell-based; conditions: HCT-116, 48 h
[3] = system: SMMC-7721; test: Antiproliferative activity against human SMMC7721 cells after 48 hrs by MTT assay; type: functional, cell-based; conditions: SMMC-7721, 48 h
[4] = system: K562; test: Antiproliferative activity against human K562 cells after 48 hrs by MTT assay; type: functional, cell-based; conditions: K562, 48 h
[5] = system: H22; test: Antitumor activity against mouse H22 cells implanted in Swiss mouse assessed as inhibition of lung metastasis at 5 mg/kg/day, iv administered via tail vein for 7 days relative to control; type: functional; conditions: 168 h
[6] = system: H22; test: Antitumor activity against mouse H22 cells implanted in Swiss mouse assessed as tumor growth inhibition at 5 mg/kg/day, iv administered via tail vein for 7 days relative to control; type: functional; conditions: 168 h, read-out: TGI

| Compound | IC50 [1] [µM] | IC50 [2] [µM] | IC50 [3] [µM] | IC50 [4] [µM] | inhibition in vivo at 5 mg/kg/day [5] [%] | inhibition in vivo at 5 mg/kg/day [6] [%] |
| --- | --- | --- | --- | --- | --- | --- |
| CCCNCCCNCCCNCCCN1C(=O)c2cccc3cccc(c23)C1=O | 9.98 | 7.96 | 11.2 | 10.2 | – | – |
| O=C1c2cccc3cccc(c23)C(=O)N1CCCNCCCCNCCCNC1CC1 | 6.59 | 7.21 | 6.38 | 8.09 | – | – |
| CN(C)CCN1C(=O)c2cccc3cc(N)cc(c23)C1=O [AMONAFIDE] | – | 6.86 | – | 10.1 | 41.2 | 45.1 |
| O=C1c2cccc3cccc(c23)C(=O)N1CCCCNCCCCNCCCCNC1CC1 | 9.68 | 15.1 | 12 | 8.55 | – | – |
| CCNCCCNCCCCNCCCN1C(=O)c2cccc3cccc(c23)C1=O | 5.22 | 5.94 | 11 | 14.8 | – | – |
| O=C1c2cccc3cccc(c23)C(=O)N1CCCCNCCCCNCCCCNC1CCCCC1 | 37 | 14.2 | 14.3 | 30.7 | – | – |
